Results published in patent publication US20260022142A1, “MACROCYCLIC IMMUNOMODULATORS” (Bristol-Myers Squibb Company, priority 2022, published 2026).
Bridge positions count the residues as written; N and C are the ends. Square brackets hold non-standard residues; d marks the D form. Peptide text beside a SMILES is read from it. * marks the point of attachment. Bip = N[C@@H](Cc1ccc(-c2ccccc2)cc1)C(=O)O; Phe(3-Me) = Cc1cccc(C[C@H](N)C(=O)O)c1; Cha = N[C@@H](CC1CCCCC1)C(=O)O; Carboxymethyl = O=C(O)C*; Orn = NCCC[C@H](N)C(=O)O; Aun = NCCCCCCCCCCC(=O)O; Dab = NCC[C@H](N)C(=O)O; Dap = NC[C@H](N)C(=O)O; AEEA = NCCOCCOCC(=O)O

Molecular target: T1, PD-1/PD-L1 interaction (PE-labeled human PD-L1-Ig binding to Jurkat cell line over-expressing human PD-1) (Homo sapiens, UniProt Q15116)
T1 construct: expressed in transfected cells; host or cells: Jurkat
T1 sequence (Q15116 25-288): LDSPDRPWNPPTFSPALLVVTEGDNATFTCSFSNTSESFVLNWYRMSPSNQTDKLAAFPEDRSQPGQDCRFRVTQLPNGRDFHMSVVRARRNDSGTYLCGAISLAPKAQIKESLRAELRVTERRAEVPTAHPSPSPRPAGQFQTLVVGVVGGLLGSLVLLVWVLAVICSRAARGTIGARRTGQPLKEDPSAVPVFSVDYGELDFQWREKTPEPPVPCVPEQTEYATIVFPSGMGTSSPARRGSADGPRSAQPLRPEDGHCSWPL
Assay: Jurkat-PD-1 Cell Binding High-Content Screening Assay (CBA)
Format: cell-based
Conditions: Jurkat cell line over-expressing human PD-1; PE-labeled PD-L1-Ig 20 nM final; read-out: Jurkat hPD1-PDL1 IC50
Method in brief: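 Jurkat cells over-expressing human PD-1 (8×10^3 per well, DMEM/10% FCS) preincubated with compound 2 h at 37° C, then PE-labeled human PD-L1-Ig (20 nM final) added for 1 h. Cells fixed with paraformaldehyde, Hoechst-stained, and bound fluorescence quantified by high-content imaging.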

Question: For `CC(C)C[C@H]1NC(=O)[C@H](CCCN)NC(=O)[C@H](C(C)C)NC(=O)[C@H](Cc2ccc(-c3ccccc3)cc2)NC(=O)[C@H](C(C)C)NC(=O)[C@H](Cc2c[nH]c3ccccc23)NC(=O)[C@H](CC(=O)O)NC(=O)[C@H](Cc2ccc(OCC(=O)O)cc2)NC(=O)[C@H](CN)NC(=O)CSC[C@@H](C(=O)N[C@@H](C)C(=O)N[C@@H](CCN)C(=O)NCCCCCCCCCCC(=O)O)NC(=O)[C@H]([C@@H](C)O)NC(=O)[C@H](C(C)C)NC(=O)[C@H](CC2CCCCC2)NC(=O)[C@H](Cc2cnc[nH]2)NC1=O` [Compound 1082] ({CH2CO}-[Dap]Y(Carboxymethyl)DWV[Bip]V[Orn][dL]H[Cha]VTCA[Dab][Aun]-OH; thioether N-14), which IC50 is on record?
Answer: Its IC50 is 24.7 nM.

Question: For `CC(C)C[C@H]1NC(=O)[C@H](CCCN)NC(=O)[C@H](C(C)C)NC(=O)[C@H](Cc2ccc(-c3ccccc3)cc2)NC(=O)[C@H](C(C)C)NC(=O)[C@H](Cc2c[nH]c3ccccc23)NC(=O)[C@H](CC(=O)O)NC(=O)[C@H](Cc2ccc(OCC(=O)O)cc2)NC(=O)[C@H](CN)NC(=O)CSC[C@@H](C(=O)N[C@@H](C)C(=O)N[C@@H](CCCN)C(=O)NCC(=O)NCCCCCCCCCCC(=O)O)NC(=O)[C@H]([C@@H](C)O)NC(=O)[C@H](C(C)C)NC(=O)[C@H](CC2CCCCC2)NC(=O)[C@H](Cc2c[nH]cn2)NC1=O` [Compound 1086] ({CH2CO}-[Dap]Y(Carboxymethyl)DWV[Bip]V[Orn][dL]H[Cha]VTCA[Orn]G[Aun]-OH; thioether N-14), which IC50 is on record?
Answer: Its IC50 is 21 nM.

Question: `CC(C)C[C@H]1NC(=O)[C@H](CCCN)NC(=O)[C@H](C(C)C)NC(=O)[C@H](Cc2ccc(-c3ccccc3)cc2)NC(=O)[C@H](C(C)C)NC(=O)[C@H](Cc2c[nH]c3ccccc23)NC(=O)[C@H](CC(=O)O)NC(=O)[C@H](Cc2ccc(OCC(=O)O)cc2)NC(=O)[C@H](CN)NC(=O)CSC[C@@H](C(=O)N[C@@H](C)C(=O)N[C@@H](CCC(=O)O)C(=O)NCC(=O)NCCCCCCCCCCC(=O)O)NC(=O)[C@H]([C@@H](C)O)NC(=O)[C@H](C(C)C)NC(=O)[C@H](CC2CCCCC2)NC(=O)[C@H](Cc2c[nH]cn2)NC1=O` [Compound 1088] ({CH2CO}-[Dap]Y(Carboxymethyl)DWV[Bip]V[Orn][dL]H[Cha]VTCAEG[Aun]-OH; thioether N-14) was tested. Which IC50 did it give?
Answer: Its IC50 is 25 nM.

Question: How did the IC50 turn out when `CC(C)C[C@H]1NC(=O)[C@H](CCCN)NC(=O)[C@H](C(C)C)NC(=O)[C@H](Cc2ccc(-c3ccccc3)cc2)NC(=O)[C@H](C(C)C)NC(=O)[C@H](Cc2c[nH]c3ccccc23)NC(=O)[C@H](CC(=O)O)NC(=O)[C@H](Cc2ccc(OCC(=O)O)cc2)NC(=O)[C@H](CN)NC(=O)CSC[C@@H](C(=O)N[C@@H](C)C(=O)N[C@@H](CC(=O)O)C(=O)NCC(=O)NCCCCCCCCCCC(=O)O)NC(=O)[C@H]([C@@H](C)O)NC(=O)[C@H](C(C)C)NC(=O)[C@H](CC2CCCCC2)NC(=O)[C@H](Cc2cnc[nH]2)NC1=O` [Compound 1089] ({CH2CO}-[Dap]Y(Carboxymethyl)DWV[Bip]V[Orn][dL]H[Cha]VTCADG[Aun]-OH; thioether N-14) was run?
Answer: Its IC50 is 33.1 nM.

Question: Which IC50 does the source give for `CC(C)C[C@H]1NC(=O)[C@H](CCCN)NC(=O)[C@H](C(C)C)NC(=O)[C@H](Cc2ccc(-c3ccccc3)cc2)NC(=O)[C@H](C(C)C)NC(=O)[C@H](Cc2c[nH]c3ccccc23)NC(=O)[C@H](CC(=O)O)NC(=O)[C@H](Cc2ccc(OCC(=O)O)cc2)NC(=O)[C@H](CN)NC(=O)CSC[C@@H](C(=O)N[C@@H](C)C(=O)N[C@@H](CCCCN)C(=O)NCCCCCCCCCCC(=O)O)NC(=O)[C@H]([C@@H](C)O)NC(=O)[C@H](C(C)C)NC(=O)[C@H](CC2CCCCC2)NC(=O)[C@H](Cc2cnc[nH]2)NC1=O` [Compound 1090] ({CH2CO}-[Dap]Y(Carboxymethyl)DWV[Bip]V[Orn][dL]H[Cha]VTCAK[Aun]-OH; thioether N-14) here?
Answer: The IC50 was 38.9 nM.

Question: Which IC50 does the source give for `CC(C)C[C@H]1NC(=O)[C@H](CCCN)NC(=O)[C@H](C(C)C)NC(=O)[C@H](Cc2ccc(-c3ccccc3)cc2)NC(=O)[C@H](C(C)C)NC(=O)[C@H](Cc2c[nH]c3ccccc23)NC(=O)[C@H](CC(=O)O)NC(=O)[C@H](Cc2ccc(OCC(=O)O)cc2)NC(=O)[C@H](CN)NC(=O)CSC[C@@H](C(=O)N[C@@H](C)C(=O)N[C@@H](CCCN)C(=O)NCCCCCCCCCCC(=O)O)NC(=O)[C@H]([C@@H](C)O)NC(=O)[C@H](C(C)C)NC(=O)[C@H](CC2CCCCC2)NC(=O)[C@H](Cc2cnc[nH]2)NC1=O` [Compound 1091] ({CH2CO}-[Dap]Y(Carboxymethyl)DWV[Bip]V[Orn][dL]H[Cha]VTCA[Orn][Aun]-OH; thioether N-14) here?
Answer: The IC50 was 31.5 nM.

Question: How did the IC50 turn out when `CC(C)C[C@H]1NC(=O)[C@H](CCCN)NC(=O)[C@H](C(C)C)NC(=O)[C@H](Cc2ccc(-c3ccccc3)cc2)NC(=O)[C@H](C(C)C)NC(=O)[C@H](Cc2c[nH]c3ccccc23)NC(=O)[C@H](CC(=O)O)NC(=O)[C@H](Cc2ccc(OCC(=O)O)cc2)NC(=O)[C@H](CN)NC(=O)CSC[C@@H](C(=O)N[C@@H](CC(=O)O)C(=O)NCC(=O)NCCCCCCCCCCC(=O)O)NC(=O)[C@H]([C@@H](C)O)NC(=O)[C@H](C(C)C)NC(=O)[C@H](CC2CCCCC2)NC(=O)[C@H](Cc2cnc[nH]2)NC1=O` [Compound 1092] ({CH2CO}-[Dap]Y(Carboxymethyl)DWV[Bip]V[Orn][dL]H[Cha]VTCDG[Aun]-OH; thioether N-14) was run?
Answer: The IC50 was 37.3 nM.

Question: Which IC50 does the source give for `Cc1cccc(C[C@@H]2NC(=O)[C@H](CC(=O)O)NC(=O)[C@H](Cc3ccc(OCC(=O)O)cc3)NC(=O)[C@H](CN)NC(=O)CSC[C@@H](C(=O)N[C@@H](CC(=O)O)C(=O)NCC(=O)NCCCCCCCCCCC(=O)O)NC(=O)[C@H]([C@@H](C)O)NC(=O)[C@H](C(C)C)NC(=O)[C@H](CC3CCCCC3)NC(=O)[C@H](Cc3cnc[nH]3)NC(=O)[C@@H](CC(C)C)NC(=O)[C@H](CCCN)NC(=O)[C@H](C(C)C)NC(=O)[C@H](Cc3ccc(-c4ccccc4)cc3)NC(=O)[C@H](C(C)C)NC2=O)c1` [Compound 1093] ({CH2CO}-[Dap]Y(Carboxymethyl)D[Phe(3-Me)]V[Bip]V[Orn][dL]H[Cha]VTCDG[Aun]-OH; thioether N-14) here?
Answer: Its IC50 is 11.8 nM.

Question: Which IC50 does the source give for `CC(C)C[C@H]1NC(=O)[C@H](CCCN)NC(=O)[C@H](C(C)C)NC(=O)[C@H](Cc2ccc(-c3ccccc3)cc2)NC(=O)[C@H](C(C)C)NC(=O)[C@H](Cc2c[nH]c3ccccc23)NC(=O)[C@H](CC(=O)O)NC(=O)[C@H](Cc2ccc(OCC(=O)O)cc2)NC(=O)[C@H](CN)NC(=O)CSC[C@@H](C(=O)N[C@@H](CCC(=O)O)C(=O)NCC(=O)NCCCCCCCCCCC(=O)O)NC(=O)[C@H]([C@@H](C)O)NC(=O)[C@H](C(C)C)NC(=O)[C@H](CC2CCCCC2)NC(=O)[C@H](Cc2cnc[nH]2)NC1=O` [Compound 1094] ({CH2CO}-[Dap]Y(Carboxymethyl)DWV[Bip]V[Orn][dL]H[Cha]VTCEG[Aun]-OH; thioether N-14) here?
Answer: Its IC50 is 17.2 nM.

Question: `CC(C)C[C@H]1NC(=O)[C@H](CCCN)NC(=O)[C@H](C(C)C)NC(=O)[C@H](Cc2ccc(-c3ccccc3)cc2)NC(=O)[C@H](C(C)C)NC(=O)[C@H](Cc2c[nH]c3ccccc23)NC(=O)[C@H](CC(=O)O)NC(=O)[C@H](Cc2ccc(OCC(=O)O)cc2)NC(=O)[C@H](CN)NC(=O)CSC[C@@H](C(=O)NCCOCCOCC(=O)N[C@@H](CN)C(=O)NCCCCCCCCCCC(=O)O)NC(=O)[C@H]([C@@H](C)O)NC(=O)[C@H](C(C)C)NC(=O)[C@H](CC2CCCCC2)NC(=O)[C@H](Cc2cnc[nH]2)NC1=O` [Compound 1095] ({CH2CO}-[Dap]Y(Carboxymethyl)DWV[Bip]V[Orn][dL]H[Cha]VTC[AEEA][Dap][Aun]-OH; thioether N-14) was tested. Which IC50 did it give?
Answer: Its IC50 is 15.7 nM.

Question: With `CC(C)C[C@H]1NC(=O)[C@H](CCCN)NC(=O)[C@H](C(C)C)NC(=O)[C@H](Cc2ccc(-c3ccccc3)cc2)NC(=O)[C@H](C(C)C)NC(=O)[C@H](Cc2c[nH]c3ccccc23)NC(=O)[C@H](CC(=O)O)NC(=O)[C@H](Cc2ccc(OCC(=O)O)cc2)NC(=O)[C@H](CN)NC(=O)CSC[C@@H](C(=O)NCCOCCOCC(=O)N[C@@H](CCN)C(=O)NCCCCCCCCCCC(=O)O)NC(=O)[C@H]([C@@H](C)O)NC(=O)[C@H](C(C)C)NC(=O)[C@H](CC2CCCCC2)NC(=O)[C@H](Cc2cnc[nH]2)NC1=O` [Compound 1096] ({CH2CO}-[Dap]Y(Carboxymethyl)DWV[Bip]V[Orn][dL]H[Cha]VTC[AEEA][Dab][Aun]-OH; thioether N-14) as the compound, how does the IC50 read?
Answer: The IC50 was 15.7 nM.

Question: With `CC(C)C[C@H]1NC(=O)[C@H](CCCN)NC(=O)[C@H](C(C)C)NC(=O)[C@H](Cc2ccc(-c3ccccc3)cc2)NC(=O)[C@H](C(C)C)NC(=O)[C@H](Cc2c[nH]c3ccccc23)NC(=O)[C@H](CC(=O)O)NC(=O)[C@H](Cc2ccc(OCC(=O)O)cc2)NC(=O)[C@H](CN)NC(=O)CSC[C@@H](C(=O)NCCOCCOCC(=O)N[C@@H](CCCN)C(=O)NCCCCCCCCCCC(=O)O)NC(=O)[C@H]([C@@H](C)O)NC(=O)[C@H](C(C)C)NC(=O)[C@H](CC2CCCCC2)NC(=O)[C@H](Cc2cnc[nH]2)NC1=O` [Compound 1097] ({CH2CO}-[Dap]Y(Carboxymethyl)DWV[Bip]V[Orn][dL]H[Cha]VTC[AEEA][Orn][Aun]-OH; thioether N-14) as the compound, how does the IC50 read?
Answer: The IC50 was 14.9 nM.

Question: Which IC50 does the source give for `CC(C)C[C@H]1NC(=O)[C@H](CCCN)NC(=O)[C@H](C(C)C)NC(=O)[C@H](Cc2ccc(-c3ccccc3)cc2)NC(=O)[C@H](C(C)C)NC(=O)[C@H](Cc2c[nH]c3ccccc23)NC(=O)[C@H](CC(=O)O)NC(=O)[C@H](Cc2ccc(OCC(=O)O)cc2)NC(=O)[C@H](CN)NC(=O)CSC[C@@H](C(=O)NCCOCCOCC(=O)N[C@@H](CCC(=O)O)C(=O)NCCCCCCCCCCC(=O)O)NC(=O)[C@H]([C@@H](C)O)NC(=O)[C@H](C(C)C)NC(=O)[C@H](CC2CCCCC2)NC(=O)[C@H](Cc2cnc[nH]2)NC1=O` [Compound 1099] ({CH2CO}-[Dap]Y(Carboxymethyl)DWV[Bip]V[Orn][dL]H[Cha]VTC[AEEA]E[Aun]-OH; thioether N-14) here?
Answer: The IC50 was 13.8 nM.
